Data on two compounds can be found in PMC3735840 (ACS chemical biology, 2013).

As usually defined, the Kd is a measure of binding affinity in units of concentration. For orientation: Km means the concentration of substrate that gives half-maximal velocity.

Data set [1] has as its target enzyme I (EI) (Escherichia coli, UniProt P08839, R465A). Kind of data set: NMR chemical shift titration. The format is binding.
Data set [2] has as its target enzyme I (EI) (Escherichia coli, UniProt P08839). Kind of data set: NMR chemical shift titration. The format is binding.
A further data set relates to C=C(OP(=O)(O)O)C(=O)O. Briefly: steady-state enzyme kinetics of the R465A EIC mutant with PEP. To be noted: Mg2+ active site of the C-terminal domain. It counts as biochemical, Escherichia coli.

`O=C(O)CCC(=O)C(=O)O` [αKG, α-ketoglutarate]: the figures for the Kd on enzyme I (EI) [1] and on enzyme I (EI) [2] were around 6.7 mM and around 2.2 mM, respectively.

For “enzyme I (EI) (Escherichia coli K-12; R465A)”, the Km with C=C(OP(=O)(O)O)C(=O)O stood at 1600 ± 400 µM.
